Here are results for 89 molecules from PubChem BioAssay AID1199 (EPA DSSTox, 2008).

This series has as its system mouse carcinogenicity bioassay, TD50 from CPDB. Description: DSSTox (CPDBAS) Carcinogenic Potency Database Summary Mouse Bioassay Results. The method in brief:
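Chronic long-term mouse cancer bioassays from literature and NCI/NTP, compiled per sex. TD50 is the standardized carcinogenic potency, using the most positive experiment per sex-species; target sites follow author opinion.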

[1] abbreviates: TD50_Mouse_Note: no positive results, TargetSites_Mouse_Female: no positive results.
Where [2] appears, read: TD50_Mouse_Note: TD50 is harmonic mean of more than one positive test, TargetSites_Mouse_Female: liver.
Where [3] appears, read: TD50_Mouse_Note: positive test results only by intraperitoneal or intravenous injection, TD50 is harmonic mean of more than one positive, TargetSites_Mouse_Female: hematopoietic system, lung.
Where [4] appears, read: TD50_Mouse_Note: TD50 is harmonic mean of more than one positive test, harmonic mean of TD50 includes a value for upper 99% confidence li, TargetSites_Mouse_Female: liver.
[5] abbreviates: TargetSites_Mouse_Female: no positive results.
Setting [6] is: TD50_Mouse_Note: TD50 is harmonic mean of more than one positive test, TargetSites_Mouse_Female: lung, stomach.
Setting [7] is: TargetSites_Mouse_Female: liver.
Where [8] appears, read: TargetSites_Mouse_BothSexes: liver, mammary gland.
Where [9] appears, read: TD50_Mouse_Note: TD50 is harmonic mean of more than one positive test, TargetSites_Mouse_Female: vascular system.

Calls of active or inactive are those of the source.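 The calls were made as follows: active = a tumour-causing dose and a tumour site recorded for mice in at least one sex group; inconclusive = only government mouse studies exist and were judged inadequate; inactive = mouse studies exist but none gave tumours.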

`CC(C)COC(=O)c1ccc(O)cc1`: the outcome under setting [1] is “inactive; no positive results”.
On to `Cc1ccccc1`, for which the outcome under setting [1] was “inactive; no positive results”.
For the molecule `O=P(OCCCl)(OCCCl)OCCCl`, the Potency (TD50_Mouse_Note: TD50 is harmonic mean of more than one positive test, TargetSites_Mouse_Female: hematopoietic system, stomach) was 3.39 mmol/kg/day.
Take `CCN(CC)C(=O)Nc1ccc(OCC(O)CNC(C)(C)C)c(C(C)=O)c1` (stereo not given): under setting [1], the outcome was “inactive; no positive results”.
As to `Nc1ccccc1N`, the Potency under setting [2] is 4.06 mmol/kg/day.
`Nc1ccc2nc3ccccn3c2n1`: the Potency (TD50_Mouse_Note: TD50 is harmonic mean of more than one positive test, TargetSites_Mouse_Female: liver, vascular system) was 0.0869 mmol/kg/day.
Take `CCC(C)c1cc([N+](=O)[O-])cc([N+](=O)[O-])c1O` (stereo not given): the outcome under setting [1] was “inactive; no positive results”.
The same measure, in the same setting: to `CC(=O)c1ccc(S(=O)(=O)NC(=O)NC2CCCCC2)cc1` belongs “inactive; no positive results”.
For `O[C@H]([C@H](O)[C@@H](O)CBr)[C@H](O)CBr`, the Potency under setting [3] is 0.0357 mmol/kg/day.
On to `c1ccc2sc(SN3CCOCC3)nc2c1`, for which the outcome under setting [1] is “inactive; no positive results”.
`Nc1ccc2oc3ccccc3c2c1`: the Potency under setting [4] is 0.0231 mmol/kg/day.
For `CCc1nc(N)nc(N)c1-c1ccc(Cl)cc1`, under setting [1], the outcome was “inactive; ntp bioassay inadequate”.
`CCCl`: the Potency (TargetSites_Mouse_Female: uterus) is 28.1 mmol/kg/day.
As to `Clc1ccccc1Cl`, the outcome under setting [1] is “inactive; no positive results”.
For `c1ccc2occc2c1`, the Potency (TD50_Mouse_Note: TD50 is harmonic mean of more than one positive test, TargetSites_Mouse_Female: liver, lung, stomach) is 0.212 mmol/kg/day.
Regarding `NC(=S)NNS(=O)(=O)c1ccccc1`, the result under setting [1] was inactive.
On to `O=P(O)(O)O`, for which the outcome under setting [1] was “inactive; no positive results”.
Take `CCNc1nc(Cl)nc(NC(C)C)n1`: the outcome under setting [1] was “inactive; no positive results”.
In the case of `N[C@@H](CCC(=O)NNc1ccc(CO)cc1)C(=O)O`, under setting [1], the outcome is “inactive; no positive results”.
As for `CCC(O)OC(O)CC` (stereo not given), the outcome under setting [1] was “inactive; no positive results”.
On the same count and under the same terms, to `Cn1cc(OCC(O)CNC(C)(C)C)c2ccccc2c1=O` (stereo not given) belongs “inactive; no positive results”.
With `CSCCC(N)C(=O)O` (stereo not given), under “TD50_Mouse_Note: no positive results”, the outcome was “inactive; no positive results”.
Take `O=S1(=O)OCCO1`: the outcome under setting [1] was inactive.
Still for that read-out and setting: to `O=S(O)S(=O)(=O)O` belongs “inactive; no positive results”.
In the case of `O=S(=O)(O)NC1CCCCC1`, where the note is “TD50_Mouse_Note: TD50 is harmonic mean of more than one positive test, TargetSites_Mouse_Female: all tumor bearing animals”, the Potency is 3.31 mmol/kg/day.
On to `Nc1ccc(-c2ccc(N)c(N)c2)cc1N`, for which the Potency under setting [5] was 0.8 mmol/kg/day.
For `O=C(Nc1ccc([N+](=O)[O-])cc1Cl)c1cc(Cl)ccc1O`, under setting [1], the outcome was “inactive; ntp bioassay inadequate”.
With `O=S(=O)(c1ccc(Cl)cc1)c1ccc(Cl)cc1`, the outcome under setting [1] was “inactive; no positive results”.
As for `Nc1nc(N)nc(-c2ccccc2)n1`, under setting [1], the outcome was “inactive; no positive results”.
In the case of `O=P1(N(CCCl)CCCl)NCCCO1` (stereo not given), the Potency under setting [3] was 0.0228 mmol/kg/day.
As for `C=CCN(N)CC=C`, under setting [6], the Potency was 0.264 mmol/kg/day.
Consider `CN(C)c1ccc(C(=O)c2ccc(N(C)C)cc2)cc1`, for which the Potency under setting [2] was 0.313 mmol/kg/day.
In the case of `CC(=O)O[C@]1(C(C)=O)CC[C@H]2[C@@H]3C=C(Cl)C4=CC(=O)[C@@H]5C[C@@H]5[C@]4(C)[C@H]3CC[C@@]21C`, the Potency (TD50_Mouse_Note: TD50 is harmonic mean of more than one positive test, TargetSites_Mouse_Female: liver, stomach) was 0.0525 mmol/kg/day.
In the case of `ClC(Cl)C(Cl)Cl`, the Potency under setting [2] was 0.228 mmol/kg/day.
For `NC(=S)Nc1ccccc1`, the outcome under setting [1] was “inactive; no positive results”.
`ClCC(Br)CBr` (stereo not given): the Potency (TD50_Mouse_Note: TD50 is harmonic mean of more than one positive test, TargetSites_Mouse_Female: lung, nasal cavity, stomach) was 0.0115 mmol/kg/day.
In the case of `C=CCOC(=O)CC(C)C`, the Potency (TargetSites_Mouse_Female: hematopoietic system) is 0.442 mmol/kg/day.
Regarding `CCCc1cc(=O)[nH]c(=S)[nH]1`, the Potency (TargetSites_Mouse_BothSexes: pituitary gland) is 2.4 mmol/kg/day.
Regarding `IC(I)I`, under setting [1], the outcome is “inactive; no positive results”.
Consider `CC(Oc1ccc(Cl)cc1Cl)C(=O)O` (stereo not given), for which, under setting [1], the outcome is “inactive; no positive results”.
With `Nc1cc(Cl)cc(C(=O)O)c1Cl`, under setting [7], the Potency was 25.4 mmol/kg/day.
Regarding `COc1nn(CSP(=S)(OC)OC)c(=O)s1`, the Potency under setting [5] was 0.02 mmol/kg/day.
Take `CCN(CC)C(=O)c1cccc(C)c1`: the outcome under setting [1] is “inactive; no positive results”.
Turning to `O=[N+]([O-])c1ccccc1`, under “TD50_Mouse_Note: TD50 is harmonic mean of more than one positive test, TargetSites_Mouse_Female: liver, mammary gland”, the Potency was 2.4 mmol/kg/day.
With `CCCCN(N)CCCC`, the Potency under setting [6] was 0.313 mmol/kg/day.
As to `CC1(C)S[C@@H]2[C@H](NC(=O)COc3ccccc3)C(=O)N2[C@H]1C(=O)O`, the outcome under setting [1] is “inactive; no positive results”.
In the case of `CC(C)(CCCOc1ccc(OCCCC(C)(C)C(=O)O)c(-c2ccccc2)c1)C(=O)O`, under setting [2], the Potency is 0.125 mmol/kg/day.
In the case of `NNC=O`, the Potency (TD50_Mouse_Note: TD50 is harmonic mean of more than one positive test, harmonic mean of TD50 includes a value for upper 99% confidence li, TargetSites_Mouse_Female: lung) is 0.606 mmol/kg/day.
`Cc1ccc2c(-c3cccc(O)c3)nc(=O)n(C(C)C)c2c1`: the outcome under setting [1] was “inactive; no positive results”.
`COc1ccccc1N`: the Potency (TD50_Mouse_Note: TD50 is harmonic mean of more than one positive test, TargetSites_Mouse_Female: urinary bladder) is 6.05 mmol/kg/day.
As for `N#CC(c1ccccc1)c1ccccc1`, the outcome under setting [1] is “inactive; no positive results”.
On to `COc1cc(/C=N/NC(=O)c2ccncc2)ccc1O`, for which the Potency under setting [8] was 0.101 mmol/kg/day.
Turning to `COC(C)(C)C`, under setting [7], the Potency was 74.3 mmol/kg/day.
Turning to `O=C(O)c1cc(N=Nc2ccc(S(=O)(=O)Nc3ccccn3)cc2)ccc1O`, the Potency under setting [2] was 3.14 mmol/kg/day.
On to `CC(C)(C)c1cc(O)ccc1O`, for which, under setting [1], the outcome is “inactive; no positive results”.
Take `Oc1ccc(O)cc1`: the Potency (TD50_Mouse_Note: TD50 is harmonic mean of more than one positive test, greater than ten-fold variation among TD50 values for positive res, TargetSites_Mouse_Female: liver) was 2.04 mmol/kg/day.
For `CC/C(C)=N/O`, the Potency under setting [5] was 6.13 mmol/kg/day.
Consider `Nc1cccc(N)c1`, for which the outcome under setting [1] is “inactive; no positive results”.
`C#CC(C)(C)NC(=O)c1cc(Cl)cc(Cl)c1`: the Potency is 0.547 mmol/kg/day.
As for `NNc1ccc(C(=O)O)cc1`, the Potency under setting [9] was 2.97 mmol/kg/day. Besides, the result under setting [1] was inactive.
For `O=c1c(CO)c/c(=N/Nc2ccc(S(=O)(=O)O)c3ccccc23)c(=O)/c1=N/Nc1ccc(S(=O)(=O)O)c2ccccc12`, the outcome under setting [1] is “inactive; no positive results”.
In the case of `C[C@]12CC[C@H](OS(=O)(=O)O)CC1=CC[C@@H]1[C@@H]2CC[C@]2(C)C(=O)CC[C@@H]12`, the outcome under setting [1] was “inactive; no positive results”.
In the case of `O=C1O[C@H]([C@@H](O)CO)C(O)=C1O`, the outcome under setting [1] was “inactive; no positive results”.
In the case of `CCC1(c2ccccc2)C(=O)NCNC1=O`, the Potency under setting [2] is 0.12 mmol/kg/day.
Take `CCC[CH2][Sn]([CH2]CCC)([O]C(C)=O)[O]C(C)=O`: the outcome under setting [1] is “inactive; no positive results”.
Same read-out and setting: the result for `CCCNC(=O)NS(=O)(=O)c1ccc(Cl)cc1` reads “inactive; no positive results”.
Turning to `C=CCc1ccc2c(c1)OCO2`, the Potency under setting [4] was 0.316 mmol/kg/day.
Consider `CC(=O)NNc1ccccc1`, for which the Potency under setting [9] was 0.341 mmol/kg/day.
As for `Nc1ccc(Oc2ccc(Cl)cc2)cc1`, the Potency (TargetSites_Mouse_Female: urinary bladder, vascular system) was 1.58 mmol/kg/day.
Regarding `O=NN1CCCCC1`, the Potency was 0.0114 mmol/kg/day.
`O=Nc1ccc(Nc2ccccc2)cc1`: the Potency under setting [5] is 1.72 mmol/kg/day.
Regarding `O.O.O.O.O=C([O-])CC(O)(CC(=O)[O-])C(=O)[O-].[Fe+3]`, the outcome under setting [1] is “inactive; no positive results”.
On to `C/C=C/C=C/C=O`, for which, for the setting “TD50_Mouse_Note: TD50 is harmonic mean of more than one positive test, TargetSites_Mouse_Female: stomach”, the Potency is 1.83 mmol/kg/day.
As to `NC(=O)Cc1cccc2ccccc12`, under setting [1], the outcome was “inactive; no positive results”.
As for `Nc1cccc2ccccc12`, the Potency is 0.47 mmol/kg/day.
Turning to `C/C=C/c1ccc2c(c1)OCO2`, under setting [1], the outcome is “inactive; no positive results”.
The same measure, in the same setting: to `Nc1ccccc1` belongs “inactive; no positive results”.
In the case of `CN(N=O)C(=O)N[C@@H]1[C@@H](O)[C@H](O)[C@@H](CO)O[C@@H]1O`, where the note is “TD50_Mouse_Note: positive test results only by intraperitoneal or intravenous injection, TD50 is harmonic mean of more than one positive, TargetSites_Mouse_Female: kidney, lung”, the Potency is 0.00103 mmol/kg/day.
On to `O=C(OOC(=O)c1ccccc1)c1ccccc1`, for which the result (TargetSites_Mouse_BothSexes: no positive results) was inactive.
In the case of `N#Cc1c(Cl)c(Cl)c(Cl)c(C#N)c1Cl`, the outcome under setting [1] was “inactive; no positive results”.
In the case of `COc1ccc(C)cc1N`, for the setting “TD50_Mouse_Note: TD50 is harmonic mean of more than one positive test, TargetSites_Mouse_Female: liver, urinary bladder”, the Potency is 0.396 mmol/kg/day.
Take `ClC1=C(Cl)C2(Cl)C3C(Cl)C=CC3C1(Cl)C2(Cl)Cl` (stereo not given): the Potency under setting [2] was 0.00324 mmol/kg/day.
Turning to `Nc1ccc(N=Nc2ccc(-c3ccc(N=Nc4c(S(=O)(=O)O)cc5cc(S(=O)(=O)O)c(N=Nc6ccccc6)c(O)c5c4N)cc3)cc2)c(N)c1`, under setting [8], the Potency was 0.0916 mmol/kg/day.
On to `Cc1ccccc1OCC(O)CNCCn1cc(C)c(=O)[nH]c1=O` (stereo not given), for which the outcome under setting [1] is “inactive; no positive results”.
For `Cc1c(N(C)CS(=O)(=O)O)c(=O)n(-c2ccccc2)n1C`, the Potency under setting [2] was 1.89 mmol/kg/day.
As to `CC(C)N(C(=O)SC/C(Cl)=C/Cl)C(C)C`, the Potency (TD50_Mouse_Note: TD50 is harmonic mean of more than one positive test, TargetSites_Mouse_Female: no positive results) is 0.0988 mmol/kg/day.
On to `CC1=C(/C=C/C(C)=C/C=C/C(C)=C/C=C/C=C(C)/C=C/C=C(C)/C=C/C2=C(C)CCCC2(C)C)C(C)(C)CCC1`, for which, under setting [1], the outcome was “inactive; no positive results”.
The same measure, in the same setting: to `CCOP(=S)(OCC)SC1OCCOC1SP(=S)(OCC)OCC` (stereo not given) belongs “inactive; no positive results”.
Take `ClC(Cl)=C(Cl)Cl`: under setting [2], the Potency is 0.953 mmol/kg/day.
